± gives the expanded uncertainty stated by the source.
Legend:
[1] = 101.33 kPa, Liquid, Pycnometric method
[2] = xn = mol fraction of the nth substance listed; settings: 101 kPa, Liquid, Capillary tube (Ostwald / Ubbelohde) method

c1ccccc1 [benzene]
[1]
Settings	mass density [kg/m3]
303.15 K	868.1 ± 0.5
313.15 K	857.4 ± 0.6
323.15 K	846.6 ± 0.6

c1ccccc1 [benzene] + CCC(C)=O
[2], x2 = 0
Settings	viscosity [mPa·s]
303.15 K	0.564 ± 0.011
313.15 K	0.498 ± 0.011
323.15 K	0.442 ± 0.011

CCC(C)=O [butanone]
[1]
Settings	mass density [kg/m3]
303.15 K	794.6 ± 0.8
313.15 K	784 ± 0.8
323.15 K	773.3 ± 0.8

CCC(C)=O [butanone] + c1ccccc1
viscosity [mPa·s], [2]
Settings	x1 = 0.101	x1 = 0.1999	x1 = 0.2988	x1 = 0.3969	x1 = 0.4996	x1 = 0.5988	x1 = 0.6993	x1 = 0.7931	x1 = 0.8961	x1 = 1
303.15 K	0.534 ± 0.011	0.508 ± 0.011	0.478 ± 0.011	0.452 ± 0.011	0.432 ± 0.011	0.417 ± 0.011	0.401 ± 0.011	0.389 ± 0.011	0.376 ± 0.011	0.367 ± 0.011
313.15 K	0.473 ± 0.011	0.448 ± 0.011	0.427 ± 0.011	0.409 ± 0.011	0.393 ± 0.011	0.378 ± 0.011	0.367 ± 0.011	0.355 ± 0.011	0.345 ± 0.011	0.334 ± 0.011
323.15 K	0.422 ± 0.011	0.403 ± 0.011	0.384 ± 0.011	0.369 ± 0.011	0.354 ± 0.011	0.343 ± 0.011	0.333 ± 0.011	0.324 ± 0.011	0.316 ± 0.011	0.306 ± 0.011
